# How the values were obtained:
# Format in all cases: cell-based
# [1] = tested on: TNF-induced NF-κB reporter gene activity; assay: TNF-induced NF-κB reporter counter-screen in HEK293-NFκB-Luc cells; details: TNF 10 ng/mL; CID-2858522 at concentrations as high as 4 μM
# Method: (A) Structures of two hit compounds, CID-2858522 (left) and CID-2998237 (right) are shown; (B, C) 293-NF-κB-luc cells were pretreated for 2 hrs with various concentration of either CID-2858522 (B) or CID-29982387 (C) and then stimulated with TNF (10 ng/mL) or PMA/lonomycin (10 ng/mL; 5 ng/mL) for 16 h. Luciferase activity was measured and data were expressed as a percentage relative to control treatment with DMSO only (mean±SD; n=3). (D) 293-NF-κB-luc cells were pretreated for 2 h with various concentrations of CID-2858522 or CID-2998237, then stimulated with PMA/lonomycin for 16 h. IL-8 release into the medium was measured, expressing data as a percentage relative to control cultures treated with DMSO (mean±SD; n=3). (E) 293-NF-κB-luc cells were pretreated with CID-2858522 and then stimulated with PDBu for 16 h, IL-8 production and NF-κB luciferase activity were measured as above. (F) 293-NF-κB-luc cells were pretreated for 2 h with various concentrations of CID-2858522 or a PKC inhibitor (Bisindolylmaleimide I) at 1 μM followed by PMA/Ionomycin (10 ng/mL) stimulation for 2 h, then p65-DNA-binding activity was measured in nuclear extracts (10 μg protein), expressing data as fold-increase relative to unstimulated cells (mean±SD; n=3).
# Counter Screening and Secondary Assays. […] Luciferase activity was measured using Britelite kit (Perkin Elmer). […]
# MDP (NOD2) induced IL-6 = assay: IL-6 in THP.1 cell cultures stimulated with MDP; details: data not shown
# Description: FIG. 1 is a flow chart of screening and counter-screenings for selective inhibitors of antigen-receptor induced NF-κB pathway. A total of 114,889 compounds were screened. From a screen of 53,280 commercially available compounds (left column), 519 hits were obtained, of which 248 reconfirmed using the same primary screening assay. […] From these 11 active compounds, one hit, CID-2858522, inhibited PMA/Ionomycin-induced production of cytokine IL-8 by the HEK293 cell line. CID-2858522 was then characterized (right column). PDB was substituted for PMA to confirm suppression of an alternative PKC activator. Pathway selectivity was assessed using panels of cell lines, starting with HEK293 cells in which each of the remaining NF-κB activation pathways was stimulated, showing inhibition only of PMA/Ionomycin-induced NF-κB reporter gene activity (panel 1). […]
# p65-DNA binding activity = p65-DNA binding activity in anti-IgM-stimulated CLL B-cells; details: human CLL B-cells
# Method: (A) Isolated mouse primary splenocytes were cultured with anti-CD3/anti-CD28 (0.3 μg/mL each) or anti-IgM (3 μg/mL) for 48 h, then 1 μCi 3H-Thymidine was added for 12 h and incorporation into DNA was measured, expressing data as fold increase above unstimulated cells (mean±SD; n=3). (B-D) Primary splenocytes were pretreated for 2 h with IKK inhibitor, BMS-335541 (B), PKC inhibitor, Bisindolylmaleimide I (C) or CID-2858522 (D), then stimulated with anti-CD3/anti-CD28 (0.3 μg/mL) or anti-IgM (3 μg/mL) for 48 h. 1 μCi 3H-Thymidine was added for 12 h and incorporation into DNA was measured, expressing data as percent inhibition relative to control cells treated with DMSO (mean±SD; n=3). […] Levels of TRAF1 and β-actin were assessed by immunoblotting, quantified by densitometry and TRAF1 results reported relative to control cells, after normalization for β-actin (mean±SD). […] Then nuclear extracts were prepared and p65-DNA-binding activity was measured (mean±SD; n=3).
# NF-κB DNA-binding activity assays. Nuclear extracts were prepared from 10 cm^2 plates of confluent cells using a kit (Active Motif, Carsbad, Calif.). The total protein content of nuclear fractions was quantified by the Bradford method, followed by storage at −80° C. […]
structure (smiles),measurement,setting,value
"Cc1cc2nc(NCCCO)n(CC(=O)c3cc(C(C)(C)C)c(O)c(C(C)(C)C)c3)c2cc1C [Compound 1, 2-(2-(3-Hydroxypropylamino)-5,6-dimethyl-1H-benzo[d]imidazol-1-yl)-1-(3,5-di-tert-butyl-4-hydroxyphenyl)ethanone]",inhibition of TNF-induced NF-κB reporter gene activity,[1],did not inhibit
same,inhibition of MDP-induced NF-κB (IL-6 in THP.1),MDP (NOD2) induced IL-6,failed to inhibit
same,suppression of anti-IgM-induced p65-DNA binding activity,p65-DNA binding activity,direct suppression
